Measurements reported in US20250115572A1, “SPIROCYCLIC PIPERIDINYL DERIVATIVES AS COMPLEMENT FACTOR B INHIBITORS AND USES THEREOF” (Novartis AG, priority 2022, published 2025).

The molecules below were run against Recombinant human factor B (Homo sapiens (Human), UniProt P00751) (assay: Human Complement Factor B TR-FRET Assay). Conditions: displacement of labeled factor B ligand; * = assay behavior at and above the stated concentration prevented IC50 determination; read-out: hFactor-B TR-FRET Qualified IC50.
Recombinant human factor B, sequence (P00751 26-764): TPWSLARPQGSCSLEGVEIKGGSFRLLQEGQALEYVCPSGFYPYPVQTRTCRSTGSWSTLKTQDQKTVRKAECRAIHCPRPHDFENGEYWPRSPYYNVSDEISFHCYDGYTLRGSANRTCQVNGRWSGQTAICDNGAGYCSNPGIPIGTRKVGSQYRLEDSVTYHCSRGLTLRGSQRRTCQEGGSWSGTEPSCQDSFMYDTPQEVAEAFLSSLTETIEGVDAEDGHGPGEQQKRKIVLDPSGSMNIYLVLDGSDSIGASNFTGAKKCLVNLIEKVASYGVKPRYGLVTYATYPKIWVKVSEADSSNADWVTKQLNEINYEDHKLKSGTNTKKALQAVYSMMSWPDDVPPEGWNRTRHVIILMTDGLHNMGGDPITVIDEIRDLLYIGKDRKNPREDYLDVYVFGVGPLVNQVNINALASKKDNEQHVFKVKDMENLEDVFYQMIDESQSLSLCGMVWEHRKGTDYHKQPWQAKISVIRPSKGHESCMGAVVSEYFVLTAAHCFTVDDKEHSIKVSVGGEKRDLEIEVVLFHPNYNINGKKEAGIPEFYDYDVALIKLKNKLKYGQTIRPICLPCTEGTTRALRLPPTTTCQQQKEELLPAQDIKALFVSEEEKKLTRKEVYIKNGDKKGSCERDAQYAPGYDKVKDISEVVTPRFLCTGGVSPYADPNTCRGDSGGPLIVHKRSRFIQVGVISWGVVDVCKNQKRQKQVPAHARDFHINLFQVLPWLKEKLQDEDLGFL
Type: binding
Protocol: The time-gated decrease in fluorescence intensity related to the competition between labeled and unlabeled factor B ligands was recorded at both 620 nm and 665 nm, 70 μs after excitation at 337 nm using a microplate spectrofluorimeter.

| SMILES | IC50 |
| --- | --- |
| COc1cc(C)c2[nH]ccc2c1CN1CCC2(C[C@@H]1c1cnn(C)c1)CC(F)(F)C2 (single isomer, unassigned) [Ex-40] | 864 nM |
| COc1cc(C)c2[nH]ccc2c1CN1CCC2(C[C@H]1c1ccc(C(=O)O)cc1)CC(C)(O)C2 (single isomer, unassigned) [Ex-15] | 105 nM |
| Cc1cc(C2CC2)c(CN2CCC3(C[C@@H]2c2ccc(-c4nnn[nH]4)cc2)CC(F)(F)C3)c2cc[nH]c12 (single isomer, unassigned) [Ex-34] | 124 nM |
| COc1cc(C)c2[nH]ccc2c1CN1CCC2(COC2)C[C@@H]1c1ccc(C(=O)O)cc1 [Ex-12] | 5300 nM |
| COc1cc(C)c2[nH]ccc2c1CN1CCC2(C[C@H]1c1ccc(C(=O)O)cc1)CC(F)(F)C2 [Ex-5, (S)-4-(2,2-difluoro-7-((5-methoxy-7-methyl-1H-indol-4-yl)methyl)-7-azaspiro[3.5]nonan-6-yl)benzoic acid] | 0.5 nM |
| COc1cc(C)c2[nH]ccc2c1CN1CCC2(CCC(F)(F)C2)C[C@@H]1c1ccc(C(=O)O)cc1 (single isomer, unassigned) [Ex-17] | 320 nM |
| COc1cc(C)c2[nH]ccc2c1CN1CCC2(C[C@H]1c1cnn(CC(=O)O)c1)CC(F)(F)C2 [Ex-45] | 9.4 nM |
| Cc1cc(C2CC2)c(CN2CCC3(C[C@@H]2c2ccc(C4(O)COC4)cc2)CC(F)(F)C3)c2cc[nH]c12 (single isomer, unassigned) [Ex-26] | > 400 nM |
| COc1cc(C)c2[nH]ccc2c1CN1CCC2(CCC(F)(F)C2)C[C@H]1c1ccc(C(=O)O)cc1 (single isomer, unassigned) [Ex-20] | 7.6 nM |
| Cc1cc(C2CC2)c(CN2CCC3(C[C@H]2c2ccc(-c4nnn[nH]4)nc2)CC(F)(F)C3)c2cc[nH]c12 (single isomer, unassigned) [Ex-62] | 1.9 nM |
| COc1cc(C)c2[nH]ccc2c1CN1CCC2(CC1c1ccc(C(F)F)cc1)CC(F)(F)C2 (racemic) [Ex-52] | 172 nM |
| COCCn1cc([C@@H]2CC3(CCN2Cc2c(OC)cc(C)c4[nH]ccc24)CC(F)(F)C3)cn1 (single isomer, unassigned) [Ex-44] | 9.9 nM |
| COc1cc(C)c2[nH]ccc2c1CN1CCC2(C[C@H]1c1ccc(C(=O)O)cc1)CC(C)(F)C2 (single isomer, unassigned) [Ex-1] | 0.5 nM |
| Cc1cc(C2CC2)c(CN2CCC3(C[C@@H]2c2ccc(C(C)(C)O)cc2)CC(F)(F)C3)c2cc[nH]c12 (single isomer, unassigned) [Ex-28] | > 400 nM |
| Cc1cc(C2CC2)c(CN2CCC3(C[C@H]2c2ccc(C(=O)O)cc2)CC(F)(F)C3)c2cc[nH]c12 [Ex-21, (S)-4-(7-((5-cyclopropyl-7-methyl-1H-indol-4-yl)methyl)-2,2-difluoro-7-azaspiro[3.5]nonan-6-yl)benzoic acid] | 1.4 nM |
| Cc1cc(C2CC2)c(CN2CCC3(C[C@@H]2c2ccc(-c4nnn[nH]4)nc2)CC(F)(F)C3)c2cc[nH]c12 (single isomer, unassigned) [Ex-63] | 434 nM |
| Cc1cc(C2CC2)c(CN2CCC3(CC2c2ccc(C(C)(C)O)cc2)CC(F)(F)C3)c2cc[nH]c12 (racemic) [Ex-48] | 8.9 nM |
| COc1cc(C)c2[nH]ccc2c1CN1CCC2(C[C@H]1c1ccc(C(=O)O)cc1)CC2(F)F (stereo partly drawn) [Ex-70] | 14.7 nM |
| Cc1cc(C2CC2)c(CN2CCC3(C[C@H]2c2ccc(C4(O)COC4)cc2)CC(F)(F)C3)c2cc[nH]c12 (single isomer, unassigned) [Ex-25] | 4 nM |
| COc1cc(C)c2[nH]ccc2c1CN1CCC2(C[C@H]1c1ccccc1)CC(F)(F)C2 (single isomer, unassigned) [Ex-37] | 11.2 nM |
| COc1cc(C)c2[nH]ccc2c1CN1CCC2(CC1c1ccc(-c3nnn[nH]3)cc1)CC(F)(F)C2 (racemic) [Ex-54, (SR)-6-(4-(1H-tetrazol-5-yl)phenyl)-2,2-difluoro-7-((5-methoxy-7-methyl-1H-indol-4-yl)methyl)-7-azaspiro[3.5]nonane] | 2.2 nM |
| COc1cc(C)c2[nH]ccc2c1CN1CCC2(C[C@H]1c1ccc(C(=O)O)nc1)CC(F)(F)C2 [Ex-64] | 2.1 nM |
| COc1cc(C)c2[nH]ccc2c1CN1CCC2(C[C@H]1c1cnn(C)c1)CC(F)(F)C2 (single isomer, unassigned) [Ex-39] | 10.3 nM |
| Cc1cc(C2CC2(F)F)c(CN2CCC3(C[C@H]2c2ccc(C(=O)O)cc2)CC(F)(F)C3)c2cc[nH]c12 (single isomer, unassigned) [Ex-23] | 8.9 nM |
| Cc1cc(C2CC2)c(CN2CCC3(CC2c2ccc(-c4nnn[nH]4)cc2)CC(F)(F)C3)c2cc[nH]c12 (racemic) [Ex-57, 6-(4-(1H-tetrazol-5-yl)phenyl)-7-((5-cyclopropyl-7-methyl-1H-indol-4-yl)methyl)-2,2-difluoro-7-azaspiro[3.5]nonane] | 5 nM |

| SMILES | IC50 |
| --- | --- |
| COc1cc(C)c2[nH]ccc2c1CN1CCC2(C[C@H]1c1ccc(C(=O)O)cc1)CC(C)(F)C2 (single isomer, unassigned) [Ex-3] | 40.7 nM |
| COc1cc(C)c2[nH]ccc2c1CN1CCC2(C[C@@H]1c1ccc(C(=O)O)cc1)CC(C)(O)C2 (single isomer, unassigned) [Ex-14] | 10000 nM |
| COc1cc(C)c2[nH]ccc2c1CN1CCC2(C[C@@H]1c1ccc(C(=O)O)cc1)CC(F)(F)C2 [Ex-6, (R)-4-(2,2-difluoro-7-((5-methoxy-7-methyl-1H-indol-4-yl)methyl)-7-azaspiro[3.5]nonan-6-yl)benzoic acid] | 714 nM |
| Cc1cc(C2CC2)c(CN2CCC3(CC2c2ccc(-c4ccn[nH]4)cc2)CC(F)(F)C3)c2cc[nH]c12 (racemic) [Ex-51] | 4.2 nM |
| COc1cc(C)c2[nH]ccc2c1CN1CCC2(CC(F)C2)C[C@@H]1c1ccc(C(=O)O)cc1 (single isomer, unassigned) [Ex-8] | 227 nM |
| Cc1cc(C2CC2)c(CN2CCC3(CC2c2ccc(-c4nnn[nH]4)nc2)CC(F)(F)C3)c2cc[nH]c12 (racemic) [Ex-61, (SR)-6-(6-(1H-tetrazol-5-yl)pyridin-3-yl)-7-((5-cyclopropyl-7-methyl-1H-indol-4-yl)methyl)-2,2-difluoro-7-azaspiro[3.5]nonane] | 3.8 nM |
| COc1cc(C)c2[nH]ccc2c1CN1CCC2(CC(F)C2)C[C@H]1c1ccc(C(=O)O)cc1 (single isomer, unassigned) [Ex-7] | 0.8 nM |
| Cc1cc(C2CC2)c(CN2CCC3(CC2c2ccc(C4(O)COC4)cc2)CC(F)(F)C3)c2cc[nH]c12 (racemic) [Ex-49, 3-(4-(7-((5-cyclopropyl-7-methyl-1H-indol-4-yl)methyl)-2,2-difluoro-7-azaspiro[3.5]nonan-6-yl)phenyl)oxetan-3-ol] | 5.6 nM |
| COc1cc(C)c2[nH]ccc2c1CN1CCC2(C[C@@H]1c1cnn(CC(=O)O)c1)CC(F)(F)C2 [Ex-46] | 1460 nM |
| COc1cc(C)c2[nH]ccc2c1CN1CCC2(CC1c1ccc(-c3nnn[nH]3)nc1)CC(F)(F)C2 (racemic) [Ex-58, (SR)-6-(6-(1H-tetrazol-5-yl)pyridin-3-yl)-2,2-difluoro-7-((5-methoxy-7-methyl-1H-indol-4-yl)methyl)-7-azaspiro[3.5]nonane] | 3.8 nM |
| Cc1ccc(CN2CCC3(C[C@H]2c2ccc(C(=O)O)cc2)CC(F)(F)C3)c2cc[nH]c12 [Ex-53] | 7.7 nM |
| COc1cc(C)c2[nH]ccc2c1CN1CCC2(C[C@H]1c1ccc(-c3nnn[nH]3)nc1)CC(F)(F)C2 (single isomer, unassigned) [Ex-59] | 2.1 nM |
| Cc1cc(C2CC2)c(CN2CCC3(C[C@H]2c2ccc(-n4cccn4)cc2)CC(F)(F)C3)c2cc[nH]c12 (single isomer, unassigned) [Ex-31] | 3.8 nM |
| Cc1cc(C2CC2)c(CN2CCC3(C[C@@H]2c2ccc(C(=O)O)nc2)CC(F)(F)C3)c2cc[nH]c12 [Ex-67] | 337 nM |
| COc1cc(C)c2[nH]ccc2c1CN1CCC2(C[C@H]1c1ccc(-c3nnn[nH]3)cc1)CC(F)(F)C2 (single isomer, unassigned) [Ex-55] | 0.6 nM |
| Cc1cc(C2CC2)c(CN2CCC3(CC2c2ccc(-n4cccn4)cc2)CC(F)(F)C3)c2cc[nH]c12 (racemic) [Ex-50] | 7 nM |
| COc1cc(C)c2[nH]ccc2c1CN1CCC2(CCC(F)(F)C2)C[C@@H]1c1ccc(C(=O)O)cc1 (single isomer, unassigned) [Ex-19] | 1460 nM |
| COc1cc(C)c2[nH]ccc2c1CN1CCC2(C[C@@H]1c1ccc(-c3nnn[nH]3)nc1)CC(F)(F)C2 (single isomer, unassigned) [Ex-60] | 152 nM |
| COCCn1cc([C@H]2CC3(CCN2Cc2c(OC)cc(C)c4[nH]ccc24)CC(F)(F)C3)cn1 (single isomer, unassigned) [Ex-43] | 2790 nM |
| COc1cc(C)c2[nH]ccc2c1CN1CCC2(CC1c1ccc(C(=O)O)cc1)CC(C)(O)C2 (racemic) [Ex-16] | 434 nM |
| COc1cc(C)c2[nH]ccc2c1CN1CCC2(C[C@@H]1c1cnn(C(F)F)c1)CC(F)(F)C2 (single isomer, unassigned) [Ex-42] | 861 nM |
| Cc1cc(C2CC2)c(CN2CCC3(C[C@H]2c2ccc(-c4nnn[nH]4)cc2)CC(F)(F)C3)c2cc[nH]c12 (single isomer, unassigned) [Ex-33] | 1.6 nM |
| COc1cc(C)c2[nH]ccc2c1CN1CCC2(CC1c1cnn(C)c1)CC(F)(F)C2 (racemic) [Ex-36] | 24.5 nM |
| Cc1cc(C)c2[nH]ccc2c1CN1CCC2(C[C@@H]1c1ccc(C(=O)O)nc1)CC(F)(F)C2 [Ex-69] | 1230 nM |
| COc1cc(C)c2[nH]ccc2c1CN1CCC2(CC1c1ccc(C(=O)O)cc1)CC(C)(O)C2 (racemic) [Ex-13] | 29.4 nM |

Same assay, conditions: hFactor-B TR-FRET Qualified IC50, displacement of labeled factor B ligand; * = assay behavior at and above the stated concentration prevented IC50 determination

| SMILES | IC50 |
| --- | --- |
| COc1cc(C)c2[nH]ccc2c1CN1CCC2(CC1c1ccc(C(=O)O)cc1)CC(F)(F)C2 (racemic) [Ex-47] | 2.5 nM |
